{"source": "patent US20260137711A1", "about": "“COMBINATION THERAPY FOR CANCER” (NATIONAL UNIVERSITY OF IRELAND, GALWAY, priority 2022, published 2026)", "system": "MCF10A cells", "experiment": "Flow cytometry of cell cycle distribution and DNA synthesis (EdU/DAPI)", "type": "cell-based, human", "conditions": "for cell cycle distribution: 24 hours", "method": "(c) A typical profile obtained by flow cytometry of MCF10A cells labelled with EdU and DAPI that indicates the gating applied in order to determine the percentage of cells with sub-G1 DNA content (sub-G1), G1 cells (G1), replicating early-mid S phase cells (Early-Mid S/EdU+), replicating mid-late S phase cells (Mid-Late S/EdU+), cells with S phase DNA content but not replicating (2n<& <4n/EdU−), and cells either in G2 or mitosis (G2/M).(d-f) MCF10A cells were mock treated or treated with 10 μM XL413, in the presence or absence of increasing concentrations of the CDK8 inhibitor BI-1347, for 24 hours. (d) Cells were labelled with EdU for last 30 minutes and DNA synthesis, DNA content and cell cycle distribution were assessed by flow cytometry and analysed using the gating strategy described in above (FIG. 2c). (e) Distribution of cells in the cell cycle. (f) Fluorescence intensity, proportional to EdU incorporation, in individual S phase cells. Long and short horizontal black lines indicate the median and the interquartile range, respectively, extending from the 25th to the 75th percentile for ˜3,810 cells for each condition. Data is from a single experiment.\nFIG. 3: CDK8 activity is required for efficient DNA synthesis under conditions of limited CDC7 kinase activity (a-c) MCF10A cells were mock treated or treated with 31 nM BI-1347, in the presence or absence of increasing concentrations of the CDC7 inhibitors, XL413 (a-c) and TAK-931 (d-f), for 24 hours. (a and d) Cells were labelled with EdU for last 30 minutes and DNA synthesis, DNA content and cell cycle distribution were assessed by flow cytometry and analysed using the gating strategy described in FIG. 2c.c (b and e) distribution of cells in the cell cycle. (c and f) Fluorescence intensity, proportional to EdU incorporation, in individual S phase cells. Long and short horizontal black lines indicate the median and the interquartile range, respectively, extending from the 25th to the 75th percentile for ˜4,190 cells for each condition. Data is from a single experiment.\nTo analyse the cell cycle and DNA synthesis, nascent DNA was labelled by incubating cells with 10 μM EdU for either 20 or 30 minutes prior to harvest, washing with PBS, and then by resuspension in PBS containing 70% EtOH for 1 hour at −20° C. After a PBS wash, incorporated EdU was labelled by incubating cells in click reaction buffer (PBS containing 10 μM 6-Carboxyfluorescine-TEG-azide, 10 mM Sodium-L-ascorbate, 2 mM Copper-II-Sulphate) for 30 minutes protected from light. Cells were washed in PBS containing 1% BSA, 5% Tween 20 and then DNA stained in PBS containing 1% BSA and 1 μg/ml DAPI. All washes involve: centrifugation at 400×g for 5 minutes, removal of supernatant from pellet, resuspension in the appropriate buffer, recentrifugation and removal of supernatant from the pellet prior to the next step.\nFluorescence intensity data for 6-Carboxyfluorescine (488_530_30 nm) and DAPI (405_450_50 nm) were acquired for 10,000 single cells on a BD FACS Canto II and analysed using FlowJo software. To further analyse fluorescence intensity, proportional to EdU incorporation, for individual cells, gates were applied on DAPI-EdU biparametric dot plots to select for EdU positive S phase cells using FlowJo. According to the required analysis these gates included either all S phase cells, or only early or late S phase cells. Fluorescence intensity (488_530_30) values per cell were exported and plotted as scatter dot plots using GraphPad prism. For comparisons of mean fluorescence intensity of a cell population across three biological repeat experiments, all fluorescence intensity values were normalised to the maximum fluorescence intensity of the untreated control sample of each respective experiment to account for absolute differences in EdU staining. […]", "note": "Entries after “also recorded” stand apart in the source; their conditions may differ.", "data": [{"compound": "Cl.O=c1[nH]c([C@@H]2CCCN2)nc2c1oc1ccc(Cl)cc12", "note": "[XL413]", "values": [{"measurement": "rate of DNA synthesis", "value": "strongly reduced; also recorded: much more profound decrease"}, {"measurement": "rate of DNA synthesis of S phase cells", "value": "corresponding decrease"}, {"measurement": "cell cycle distribution", "setting": "10 μM XL413 alone", "value": "accumulation of cells in mid to late S phase"}, {"measurement": "cell cycle distribution", "setting": "CDC7 inhibitor alone at increasing concentrations, absence of CDK8/CDK19i", "value": "dose-dependent accumulation of mid-late S phase cells"}, {"measurement": "cell cycle distribution", "setting": "CDC7 inhibitor at increasing concentrations together with the CDK8/CDK19 inhibitor (31 nM BI-1347), all doses tested", "value": "more pronounced accumulation of cells in mid-late S phase"}]}]}
